In one assay the target is D(2) dopamine receptor (Homo sapiens, UniProt P14416). Description: Binding affinity towards human Dopamine receptor D2 expressed in CHO cells by [125I]iodosulpiride displacement. It is filed as cell-based.
A further assay has as its target D(3) dopamine receptor (Homo sapiens, UniProt P35462). The assay can be described thus: Binding affinity towards human Dopamine receptor D3 expressed in CHO cells by [125I]iodosulpiride displacement. It is filed as cell-based.
Assay [1] has as its target Dopamine receptors; D2 & D3 (Homo sapiens) (UniProt P14416+P35462). The assay can be described thus: Selectivity at D3 compared to D2 receptors. It is filed as protein assay.

Chain of D(3) dopamine receptor (P35462 whole entry): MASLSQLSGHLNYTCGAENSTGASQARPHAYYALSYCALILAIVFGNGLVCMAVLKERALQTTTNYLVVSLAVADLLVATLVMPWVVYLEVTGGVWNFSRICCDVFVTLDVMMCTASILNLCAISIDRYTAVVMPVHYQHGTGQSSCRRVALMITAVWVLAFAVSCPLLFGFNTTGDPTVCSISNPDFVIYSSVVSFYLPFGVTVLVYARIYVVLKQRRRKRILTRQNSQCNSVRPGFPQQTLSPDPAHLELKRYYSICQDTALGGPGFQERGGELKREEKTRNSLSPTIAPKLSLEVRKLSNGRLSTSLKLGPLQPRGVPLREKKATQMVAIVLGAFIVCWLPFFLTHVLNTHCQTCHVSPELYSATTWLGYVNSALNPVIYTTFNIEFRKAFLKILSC
Chain of D(2) dopamine receptor (P14416 whole entry): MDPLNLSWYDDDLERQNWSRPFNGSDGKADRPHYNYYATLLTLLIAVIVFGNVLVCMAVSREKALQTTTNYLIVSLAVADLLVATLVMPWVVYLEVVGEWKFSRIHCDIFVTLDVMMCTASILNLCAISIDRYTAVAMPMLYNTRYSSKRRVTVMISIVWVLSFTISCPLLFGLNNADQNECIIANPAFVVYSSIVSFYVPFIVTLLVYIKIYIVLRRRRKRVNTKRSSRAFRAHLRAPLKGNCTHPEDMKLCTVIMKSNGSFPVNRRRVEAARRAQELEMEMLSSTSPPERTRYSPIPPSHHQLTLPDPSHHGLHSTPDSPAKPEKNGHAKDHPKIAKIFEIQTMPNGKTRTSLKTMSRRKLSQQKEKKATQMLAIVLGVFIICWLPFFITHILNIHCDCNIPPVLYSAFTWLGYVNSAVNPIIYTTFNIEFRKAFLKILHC

Usually Ki stands for the dissociation constant of the complex between target and ligand, obtained from inhibition or displacement. `CCS(=O)(=O)c1ccc(OC)c(-c2ccc(CN3CCCC3c3ccccc3)[nH]2)c1` (stereo not given): the inhibitory constant (Ki) at D(2) dopamine receptor was 15.8 nM; on D(3) dopamine receptor it was 1 nM. Moreover, the Selectivity in assay [1] was determined as 15.
With `CCS(=O)(=O)c1ccc(OC)c(-c2ccc(C(C)N3CCCCC3)[nH]2)c1` (stereo not given), the inhibition constant Ki was 316 nM at D(2) dopamine receptor and 10 nM at D(3) dopamine receptor. The same compound displayed a Selectivity in assay [1] of 30.
In the same order, the values of `CCS(=O)(=O)c1ccc(OC)c(-c2ccc(CN3CCCCC3c3ccccc3)[nH]2)c1` (stereo not given) are 12.6 nM, 1.26 nM and 10.
As to `CCN1CCCC1c1ccc(-c2cc(S(=O)(=O)CC)ccc2OC)[nH]1` (stereo not given), the Ki is 25.1 nM at D(2) dopamine receptor and 5.01 nM on D(3) dopamine receptor. Moreover, the Selectivity in assay [1] was determined as 5.
In the same order, the values of `CCS(=O)(=O)c1ccc(OC)c(-c2ccc(C(C)N3CCCC3)[nH]2)c1` (stereo not given) are 398 nM, 20 nM and 20.
As for `CCN1CCCCC1c1ccc(-c2cc(S(=O)(=O)CC)ccc2OC)[nH]1` (stereo not given), the inhibition constant (Ki) was 7.94 nM on D(2) dopamine receptor and 2 nM at D(3) dopamine receptor. In assay [1], this compound came in with a Selectivity of 4.
In the same order, the values of `CCS(=O)(=O)c1ccc(OC)c(-c2ccc(CN3CCCCCC3)[nH]2)c1` are 158 nM, 15.8 nM and 10.
In the same order, the values of `CCN1CCCCCC1c1ccc(-c2cc(S(=O)(=O)CC)ccc2OC)[nH]1` (stereo not given) are 7.94 nM, 2 nM and 4.
Take `CCS(=O)(=O)c1ccc(OC)c(-c2ccc(CN3CCCCCC3c3ccccc3)[nH]2)c1` (stereo not given): the results for the Ki at D(2) dopamine receptor and at D(3) dopamine receptor were 39.8 nM and 1.26 nM, respectively. In addition, the Selectivity in assay [1] is 30.
As to `CCN1CCCC1CNC(=O)c1cc(S(=O)(=O)CC)ccc1OC` (stereo not given) [SULTOPRIDE], the inhibitory constant (Ki) at D(2) dopamine receptor and at D(3) dopamine receptor was 6.31 nM each time.
Consider `CCS(=O)(=O)c1ccc(OC)c(-c2ccc(CN3CCOCC3)[nH]2)c1`, for which the inhibition constant Ki at D(2) dopamine receptor was 3160 nM; at D(3) dopamine receptor, 794 nM. In assay [1], this compound showed a Selectivity of 4.
In the same order, the values of `CCS(=O)(=O)c1ccc(OC)c(-c2ccc(CN3CCCCC3)[nH]2)c1` are 158 nM, 25.1 nM and 6.
In the case of `CCN(Cc1ccccc1)Cc1ccc(-c2cc(S(=O)(=O)CC)ccc2OC)[nH]1`, the Ki on D(2) dopamine receptor is 0.794 nM; at D(3) dopamine receptor, 0.316 nM. The compound further returned a Selectivity in assay [1] of 3.
In the same order, the values of `CCS(=O)(=O)c1ccc(OC)c(-c2ccc(C(C)N3CCCCCC3)[nH]2)c1` (stereo not given) are 79.4 nM, 20 nM and 4.
Consider `CCN(CC)Cc1ccc(-c2cc(S(=O)(=O)CC)ccc2OC)[nH]1`, for which the Ki on D(2) dopamine receptor is 316 nM; at D(3) dopamine receptor, 39.8 nM. This compound also yielded a Selectivity in assay [1] of 8.
Regarding `CCS(=O)(=O)c1ccc(OC)c(-c2ccc(CN3CCCCCCC3c3ccccc3)[nH]2)c1` (stereo not given), the inhibition constant Ki is 316 nM on D(2) dopamine receptor and 20 nM at D(3) dopamine receptor. The compound also had a Selectivity in assay [1] of 15.
Turning to `CCS(=O)(=O)c1ccc(OC)c(-c2ccc(CN3CCCC3)[nH]2)c1`, the figures for the Ki on D(2) dopamine receptor and at D(3) dopamine receptor were 251 nM and 63.1 nM, respectively. The same compound came in with a Selectivity in assay [1] of 4.
